In patent US9371336B2, “Compounds for treating spinal muscular atrophy” (PTC Therapeutics Inc., priority 2012, dated 2016):

Legend:
[1] = system: SMN2 minigene mRNA (SMN2-A minigene construct); assay: SMN2 minigene mRNA splicing RT-qPCR assay in cultured cells; format: cell-based, human; conditions: Homo sapiens, HEK293-H; HEK293H cells stably transfected with SMN2-A minigene, 24 hours, 7-point concentration data; concentration giving 1.5-fold SMN2 full length mRNA relative to vehicle-treated cells; read-out: EC1.5x for production of full length SMN2 mRNA
How it was run: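 Full-length SMN2 minigene mRNA, measured by exon 7/luciferase-specific RT-qPCR that excludes endogenous SMN1/SMN2, was normalized to GAPDH and expressed relative to vehicle-treated cells via modified ΔΔCt. Stably transfected HEK293H cells received compound (7-point, 3.16-fold series, duplicates) for 24 h at 37 °C.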

Smn protein = Smn protein assay (HTRF) in cultured cells (SMA patient fibroblasts GM03813); format: cell-based, human; conditions: 48 hours; for EC1.5x for Smn protein expression: SMA patient fibroblast cells (GM03813), HTRF, 7-point concentration data, concentration producing 1.5 times Smn protein vs DMSO vehicle control; for maximum fold (Fold) increase of Smn protein: SMA patient fibroblast cells, 7-point concentration curve, relative to vehicle control
How it was run: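 Smn level is expressed as fold over vehicle, from blank-corrected ΔF of the 665/620 nm HTRF ratio. Readout used anti-SMN d2 and kryptate antibodies on RIPA lysates. GM03813 SMA fibroblasts had 48 h exposure at 37° C to seven 3.16-fold compound dilutions, run in triplicate.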

Compound | EC (1.5-fold) [1] [µM] | melting point [°C] | EC1.5x for Smn protein expression (Smn protein) | maximum fold (Fold) increase of Smn protein (Smn protein)
C[C@H]1CN(C)CCN1c1ccc2cc(-c3cn4cccc(F)c4n3)c(=O)oc2n1 [Cpd 68, 7-[(2S)-2,4-dimethylpiperazin-1-yl]-3-(8-fluoroimidazo[1,2-a]pyridin-2-yl)-2H-pyrano[2,3-b]pyridin-2-one] | ≤ 0.1 | 210 to 213 | *** (an EC1.5× between >0.3 μM and ≦1 μM is indicated by three stars (***)) | **** (a fold increase between >1.5 and ≦1.65 is indicated by four stars (****))
C[C@H]1CN(c2ccc3cc(-c4cn5cccc(F)c5n4)c(=O)oc3n2)CCN1C [Cpd 69, 7-[(3S)-3,4-dimethylpiperazin-1-yl]-3-(8-fluoroimidazo[1,2-a]pyridin-2-yl)-2H-pyrano[2,3-b]pyridin-2-one] | ≤ 0.1 | 222 to 225 | **** (an EC1.5×≦0.3 μM is indicated by four stars (****)) | ***** (a fold increase >1.65 is indicated by five stars (*****))
C[C@@H]1CN(c2ccc3cc(-c4nc5c(Cl)cccc5s4)c(=O)oc3n2)C[C@H](C)N1 [Cpd 70, 3-(4-chloro-1,3-benzothiazol-2-yl)-7-[(3R,5S)-3,5-dimethylpiperazin-1-yl]-2H-pyrano[2,3-b]pyridin-2-one] | 0.1 to 0.3 | 295 to 297 |  | *** (a fold increase between >1.35 and ≦1.5 is indicated by three stars (***))
C[C@@H]1CN(c2ccc3cc(-c4nc5c(Cl)cccc5s4)c(=O)oc3n2)C[C@H](C)N1C [Cpd 71, 3-(4-chloro-1,3-benzothiazol-2-yl)-7-[(3R,5S)-3,4,5-trimethylpiperazin-1-yl]-2H-pyrano[2,3-b]pyridin-2-one] | 0.1 to 0.3 | 286 to 288 |  | ** (a fold increase between >1.2 and ≦1.35 is indicated by two stars (**))
Cc1ccc2nc(-c3cc4ccc(N5CCN(C)[C@@H](C)C5)nc4oc3=O)cn2c1 [Cpd 74, 7-[(3S)-3,4-dimethylpiperazin-1-yl]-3-(6-methylimidazo[1,2-a]pyridin-2-yl)-2H-pyrano[2,3-b]pyridin-2-one] | ≤ 0.1 | 248 to 252 | *** (an EC1.5× between >0.3 μM and ≦1 μM is indicated by three stars (***)) | **** (a fold increase between >1.5 and ≦1.65 is indicated by four stars (****))
Cc1ccc2nc(-c3cc4ccc(N5CCN(C)[C@H](C)C5)nc4oc3=O)cn2c1 [Cpd 75, 7-[(3R)-3,4-dimethylpiperazin-1-yl]-3-(6-methylimidazo[1,2-a]pyridin-2-yl)-2H-pyrano[2,3-b]pyridin-2-one] | 0.1 to 0.3 | 247 to 251 | *** (an EC1.5× between >0.3 μM and ≦1 μM is indicated by three stars (***)) | **** (a fold increase between >1.5 and ≦1.65 is indicated by four stars (****))
C[C@@H]1CN(c2ccc3cc(-c4cn5cccc(F)c5n4)c(=O)oc3n2)C[C@H](C)N1 [Cpd 76, 7-[(3R,5S)-3,5-dimethylpiperazin-1-yl]-3-(8-fluoroimidazo[1,2-a]pyridin-2-yl)-2H-pyrano[2,3-b]pyridin-2-one] | ≤ 0.1 | 247 to 249 | **** (an EC1.5×≦0.3 μM is indicated by four stars (****)) | ***** (a fold increase >1.65 is indicated by five stars (*****))
C[C@@H]1CN(c2ccc3cc(-c4cn5cccc(Cl)c5n4)c(=O)oc3n2)C[C@H](C)N1 [Cpd 77, 3-(8-chloroimidazo[1,2-a]pyridin-2-yl)-7-[(3R,5S)-3,5-dimethylpiperazin-1-yl]-2H-pyrano[2,3-b]pyridin-2-one] | ≤ 0.1 | 240 to 242 | **** (an EC1.5×≦0.3 μM is indicated by four stars (****)) | ***** (a fold increase >1.65 is indicated by five stars (*****))
C[C@@H]1CN(c2ccc3cc(-c4cn5cccnc5n4)c(=O)oc3n2)C[C@H](C)N1 [Cpd 78, 7-[(3R,5S)-3,5-dimethylpiperazin-1-yl]-3-(imidazo[1,2-a]pyrimidin-2-yl)-2H-pyrano[2,3-b]pyridin-2-one] | 0.1 to 0.3 | 255 to 258 | **** (an EC1.5×≦0.3 μM is indicated by four stars (****)) | ***** (a fold increase >1.65 is indicated by five stars (*****))
C[C@H]1CN(c2ccc3cc(-c4cn5ccccc5n4)c(=O)oc3n2)CCN1C [Cpd 81, 7-[(3S)-3,4-dimethylpiperazin-1-yl]-3-(imidazo[1,2-a]pyridin-2-yl)-2H-pyrano[2,3-b]pyridin-2-one] | 0.1 to 0.3 | 213 to 216 | **** (an EC1.5×≦0.3 μM is indicated by four stars (****)) | ***** (a fold increase >1.65 is indicated by five stars (*****))
C[C@@H]1CN(c2ccc3cc(-c4cn5ccccc5n4)c(=O)oc3n2)CCN1C [Cpd 82, 7-[(3R)-3,4-dimethylpiperazin-1-yl]-3-(imidazo[1,2-a]pyridin-2-yl)-2H-pyrano[2,3-b]pyridin-2-one] | 0.1 to 0.3 | 216 to 219 | *** (an EC1.5× between >0.3 μM and ≦1 μM is indicated by three stars (***)) | **** (a fold increase between >1.5 and ≦1.65 is indicated by four stars (****))
C[C@@H]1CN[C@@H](C)CN1c1ccc2cc(-c3nc4c(Cl)cccc4s3)c(=O)oc2n1 [Cpd 85, 3-(4-chloro-1,3-benzothiazol-2-yl)-7-[(2R,5S)-2,5-dimethylpiperazin-1-yl]-2H-pyrano[2,3-b]pyridin-2-one] | 0.1 to 0.3 | 223 to 227 |  | ** (a fold increase between >1.2 and ≦1.35 is indicated by two stars (**))
C[C@@H]1CN(C)[C@@H](C)CN1c1ccc2cc(-c3nc4c(Cl)cccc4s3)c(=O)oc2n1 [Cpd 86, 3-(4-chloro-1,3-benzothiazol-2-yl)-7-[(2R,5S)-2,4,5-trimethylpiperazin-1-yl]-2H-pyrano[2,3-b]pyridin-2-one] | 0.3 to 1 | 233 to 234 |  | ** (a fold increase between >1.2 and ≦1.35 is indicated by two stars (**))
Cc1ccc2nc(-c3cc4ccc(N5C[C@H](C)NC[C@H]5C)nc4oc3=O)cn2c1 [Cpd 87, 7-[(2R,5S)-2,5-dimethylpiperazin-1-yl]-3-(6-methylimidazo[1,2-a]pyridin-2-yl)-2H-pyrano[2,3-b]pyridin-2-one] | 0.1 to 0.3 | 225 to 229 | **** (an EC1.5×≦0.3 μM is indicated by four stars (****)) | ***** (a fold increase >1.65 is indicated by five stars (*****))
Cc1cn2cc(-c3cc4ccc(N5CCCNCC5)nc4oc3=O)nc2c(C)n1.Cl [Cpd 89, 7-(1,4-diazepan-1-yl)-3-(6,8-dimethylimidazo[1,2-a]pyrazin-2-yl)-2H-pyrano[2,3-b]pyridin-2-one hydrochloride] | ≤ 0.1 | 273 to 276 | **** (an EC1.5×≦0.3 μM is indicated by four stars (****)) | **** (a fold increase between >1.5 and ≦1.65 is indicated by four stars (****))
Cc1cn2cc(-c3cc4ccc(N5C[C@@H](C)N[C@@H](C)C5)nc4oc3=O)nc2c(C)n1 [Cpd 90, 3-(6,8-dimethylimidazo[1,2-a]pyrazin-2-yl)-7-[(3R,5S)-3,5-dimethylpiperazin-1-yl]-2H-pyrano[2,3-b]pyridin-2-one] | ≤ 0.1 | 279 to 282 | **** (an EC1.5×≦0.3 μM is indicated by four stars (****)) | ***** (a fold increase >1.65 is indicated by five stars (*****))
Cc1cn2cc(-c3cc4ccc(N5CCCN(C)CC5)nc4oc3=O)nc2c(C)n1 [Cpd 91, 3-(6,8-dimethylimidazo[1,2-a]pyrazin-2-yl)-7-(4-methyl-1,4-diazepan-1-yl)-2H-pyrano[2,3-b]pyridin-2-one] | ≤ 0.1 | 243 to 245 | **** (an EC1.5×≦0.3 μM is indicated by four stars (****)) | ***** (a fold increase >1.65 is indicated by five stars (*****))
C[C@@H]1CN[C@@H](C)CN1c1ccc2cc(-c3cn4cccc(F)c4n3)c(=O)oc2n1 [Cpd 92, 7-[(2R,5S)-2,5-dimethylpiperazin-1-yl]-3-(8-fluoroimidazo[1,2-a]pyridin-2-yl)-2H-pyrano[2,3-b]pyridin-2-one] | ≤ 0.1 | 210 to 212 | **** (an EC1.5×≦0.3 μM is indicated by four stars (****)) | **** (a fold increase between >1.5 and ≦1.65 is indicated by four stars (****))
C[C@@H]1CN[C@@H](C)CN1c1ccc2cc(-c3cn4cccc(Cl)c4n3)c(=O)oc2n1 [Cpd 94, 3-(8-chloroimidazo[1,2-a]pyridin-2-yl)-7-[(2R,5S)-2,5-dimethylpiperazin-1-yl]-2H-pyrano[2,3-b]pyridin-2-one] | ≤ 0.1 | 172 to 175 | **** (an EC1.5×≦0.3 μM is indicated by four stars (****)) | **** (a fold increase between >1.5 and ≦1.65 is indicated by four stars (****))
